# Assay results from patent US11191749B2, “Pharmaceutical compositions for combination therapy” (GENFIT, priority 2017, dated 2021).
# Tested on: TGFβ1-induced hHSC (α-SMA)
# Experiment: α-SMA ELISA in TGFβ1-induced human primary hepatic stellate cells (single agents and combination matrix, EOB/EOHSA)
# Type: cell-based
# Conditions: 1 h preincubation, TGFβ1 1 ng/ml, 48 h, FIG. 1
# Description: After 48 hours of incubation, the expression of α-SMA was measured by ELISA. […] Data are presented as mean (triplicates)±standard deviation (SD).
# Combinations were tested in a dose-response matrix format and analyzed according to the excess over Bliss (EOB) additivism model. […] Data are presented as mean of quadruplicates. (B) EOB scores were calculated as described in Materials and Methods. […] Data are presented as mean (quadruplicates)±standard deviation (SD).
# Combinations were tested in a dose-response matrix format and analyzed according to the excess over Bliss (EOB) additivism model. […] Data are presented as mean (quadruplicates)±standard deviation (SD).
# Then, 2-fold and 4-fold higher and lower concentrations were selected.
# The human primary hepatic stellate cells (hHSC) (Innoprot) were cultured under standard conditions, as described above.
smiles,measurement,value
"O=C(Nc1ncc([N+](=O)[O-])s1)c1ccccc1O [TZ, tizoxanide]",antifibrotic activity (α-SMA) as single agent,profile similar to the parent drug
